This is an account of results in US12403184B2, “Compositions and methods for treating neurodegenerative disroders” (priority 2018, dated 2025).

Where no end group is shown, it is not given here.

For one assay, the system named is Drp1. Nature of the assay: Drp1 mitochondrial level and Drp1 polymerization by western blot in HD mouse striatal cells. Type of assay: cell-based. On the procedure:
Cells were washed with cold phosphate-buffered saline (PBS) and incubated on ice in mitochondrial lysis buffer (250 mM sucrose, 20 mM HEPES-NaOH, pH 7.5, 10 mM KCl, 1.5 mM MgCl2, 1 mM EDTA, 1 mM EGTA, protease inhibitor cocktail, and phosphatase inhibitor cocktail) for 30 min. The cells were scraped and then disrupted 15 times by repeated aspiration through a 25-gauge needle. Mouse brains were minced and homogenized in mitochondrial lysis buffer to release mitochondria. The homogenates were spun at 800×g for 10 min at 4° C., and the resulting supernatants were spun at 12,000×g for 20 min at 4° C. The pellets were washed with lysis buffer and spun at 12,000×g again for 20 min at 4° C. The final pellets were suspended in lysis buffer containing 1% Triton X-100 and were mitochondrial-rich lysate fractions. The mitochondrial protein voltage-dependent anion channel (VDAC) was used as a loading control.
Protein concentration was measured by protein assay dye reagents (Bio-rad). The protein was resuspended in Laemmli buffer, loaded on SDS-PAGE, and transferred onto nitrocellulose membranes. Membranes were probed with the indicated antibodies, followed by visualization with ECL. Representative blots have been cropped for presentation.
(Immunoblotting shows a protein as a band on a membrane.)

A further assay concerns HdhQ7 and HdhQ111 cells. The experiment in a line: Mitochondrial respiratory activity (Seahorse analyzer). Type of assay: cell-based, mouse. How it is done:
Mitochondrial respiration activity in HdhQ7 and HdhQ111 cells was analyzed using a Seahorse Bioscience XFp Extracellular Flux Analyzer. The cells were seeded in XFp […] microplates at 6,000 cells per well in 50 μl of growth medium. One hour prior to measuring oxygen consumption, the cell culture media was replaced with XF assay medium and maintained in a non-CO2 incubator for 1 h. The sensor cartridges were placed in the XFp Analyzer according to the manufacturer's instructions for the Mito Stress Test kit. In brief, mitochondrial function was determined by the sequential injection of oligomycin A (2.5 μg/mL), FCCP (1 μM), and antimycin A (4 μM). Following each experiment, the total cellular number of each well was determined using DAPI staining.

Another assay has as its system mtDNA. Nature of the assay: Measurement of mtDNA content. The following applies: HdhQ111 cells, relative to TAT. Type of assay: cell-based, mouse. How it is done: Total DNA was isolated from cells using Blood and Cell culture kit (QIAGEN), and then subject to qPCR using QuantiTect SYBR Green (QIAGEN). Quantitative PCR was performed using nuclear primers (GAPDH or Tert) and mtDNA primers (mt-CO2, mt-ND2, mt-CO1 and D-loop). Three technical replicates were performed for each biological sample, and the mtDNA abundance of each replicate were normalized against nuclear DNA using the 2-ΔΔCT method.

As for “YGRKKRRQRRRGGEDKRKT-NH2 [DA1, YGRKKRRQRRR-GG-EDKRKT-NH2]”, in the assay with Drp1 (HD mouse striatal cells), the Drp1 polymerization result was “abrogated”. Besides, in the assay with Drp1 (HD mouse striatal cells, 1 μM/day for 4 days), the “Drp1 translocation to the mitochondria” value is “abrogated”. Moreover, in the assay with Drp1 (upon ATAD3A knockdown), the “inhibitory effect on Drp1 tetramer formation” value is listed as “abolished upon ATAD3A knockdown”. In the assay on HdhQ7 and HdhQ111 cells (HdhQ7 cells), the mitochondrial respiratory activity entry is on record as “minor effects”. In the assay on HdhQ7 and HdhQ111 cells (HdhQ111 cells), the ATP production result was “improved”, the maximal respiratory capacity result is listed as “improved” and the spare respiratory capacity result is “improved”. The mitochondrial respiratory defects result with HdhQ7 and HdhQ111 cells (HdhQ111 cells, 1 μM/day for 4 days) is given as “attenuated”. In addition, the mtDNA copy number entry with mtDNA was “increased”.
